Test results published in article PMC11784839, “Monoaminergic neurotransmitters are bimodal effectors of tau aggregation” (Science Advances, 2025).

Molecular target: tau (Homo sapiens, UniProt P10636)
Test: MCE Phenols Library screening, tau biosensor cell seeding assay (AvZ)
Assay type: cell-based
Conditions: for Z repl 1 / Z Repl 2: Z score; for Z repl 1 / raw data 1: replicate 1; for Z Repl 2 / raw data 2: replicate 2; for AvZ (average z score of seeding, SDs from the mean level of seeding): 10 μM phenol in cell cultures, AD brain homogenate preincubated 16 hours, two biological replicates, positive = catalyzes seeding, negative = inhibits
[1] = average Z score of the two replicates, MCE Phenols Library screen
[2] = average puncta of the two replicates
[3] = average Z score of the two replicates, tau seeding
[4] = average Z score of two replicates, Phenols Library screen
[5] = average Z score of the two replicates, tau biosensor seeding, MCE Phenols Library screen

Chain of tau (P10636 623-695 limits assumed): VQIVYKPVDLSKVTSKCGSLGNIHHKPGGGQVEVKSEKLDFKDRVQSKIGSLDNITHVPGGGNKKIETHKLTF

Row | SMILES | Z repl 1 | Z Repl 2 | av Z [1] | av puncta [2] | raw data 1 (puncta) | raw data 2 (puncta) | raw data 1 (raw puncta) | raw data 2 (raw puncta) | av Z [3] | av puncta (average of raw data 1 and 2) | av Z [4] | av Z [5] | AvZ (average z score of seeding, SDs from the mean level of seeding)
1 | O=C(CCc1ccc(O)cc1)c1c(O)cc(O)cc1O [Phloretin] | -0.858 | -0.477 | -0.667 | 11860.9 | 16053.8 | 7668.02 | – | – | – | – | – | – | –
2 | O=C(CCc1ccc(O)cc1)c1c(O)cc(O)cc1O[C@@H]1O[C@H](CO)[C@@H](O)[C@H](O)[C@H]1O [Phlorizin] | -0.297 | -0.278 | -0.288 | 16285.7 | – | – | 22779.3 | 9792.07 | – | – | – | – | –
3 | OC[C@H]1O[C@@H](Oc2cc(/C=C/c3cc(O)cc(O)c3)ccc2O)[C@H](O)[C@@H](O)[C@@H]1O [Piceatannol 3'-O-glucoside] | 0.407 | 0.408 | – | – | 31229.6 | 17127.3 | – | – | 0.407 | 24178.5 | – | – | –
4 | Oc1cc(O)cc(/C=C/c2ccc(O)c(O)c2)c1 [Piceatannol] | -1.302 | – | -1.235 | – | 10717.8 | 294.245 | – | – | – | 5506.01 | – | – | –
5 | COc1cc(C(=O)O[C@H]2[C@@H]3C=CO[C@@H](O[C@@H]4O[C@H](CO)[C@@H](O)[C@H](O)[C@H]4O)[C@@H]3[C@@]3(CO)O[C@@H]23)ccc1O [Picroside II] | -0.222 | -0.853 | -0.537 | 13671.5 | 23683.5 | 3659.57 | – | – | – | – | – | – | –
6 | CC(=O)O[C@H]1C(=O)c2c(O)cc(O)cc2O[C@@H]1c1ccccc1 [Pinobanksin 3-acetate] | 0.2 | -0.125 | – | – | 28746.2 | 11432.4 | – | – | – | 20089.3 | 0.037 | – | –
7 | COc1cc(O)cc(/C=C/c2ccc(O)cc2)c1 [Pinostilbene] | 0.091 | -0.704 | -0.306 | 16345.6 | – | – | 27446.2 | 5245.02 | – | – | – | – | –
8 | COc1cc(O)c2c(c1)O[C@H](c1ccccc1)CC2=O [Pinostrobin] | -0.797 | -0.047 | -0.422 | 14520.5 | – | – | 16779.4 | 12261.6 | – | – | – | – | –
9 | O=C1C[C@@H](c2cc(O)c(O)c(O[C@@H]3O[C@H](CO)[C@@H](O)[C@H](O)[C@H]3O)c2)Oc2cc(O)cc(O)c21 [Plantagoside] | 0.333 | -0.026 | – | – | 30340.8 | 12484.2 | – | – | 0.153 | 21412.5 | – | – | –
10 | CC1=CC(=O)c2c(O)cccc2C1=O [Plumbagin] | -2.104 | -0.904 | -1.504 | – | 1092.19 | 3106.45 | – | – | – | 2099.32 | – | – | –
11 | COc1cc2c(=O)c3c(O)c([C@@H]4O[C@H](CO[C@@H]5OC[C@](O)(CO)[C@H]5O)[C@@H](O)[C@H](O)[C@H]4O)c(O)cc3oc2cc1O [Polygalaxanthone III] | -0.439 | 0.604 | – | – | 21083.3 | 19217.2 | – | – | – | 20150.3 | 0.083 | – | –
12 | Oc1cc(O)c2c(c1)O[C@@]1(c3ccc(O)c(O)c3)Oc3cc(O)c4c(c3[C@@H]2[C@H]1O)O[C@H](c1ccc(O)c(O)c1)[C@@H](O)C4 [Procyanidin A1] | 0.114 | 0.572 | – | – | 27718.4 | 18878.6 | – | – | 0.343 | 23298.5 | – | – | –
13 | Oc1cc(O)c2c(c1)O[C@@]1(c3ccc(O)c(O)c3)Oc3cc(O)c4c(c3[C@@H]2[C@H]1O)O[C@H](c1ccc(O)c(O)c1)[C@H](O)C4 [Procyanidin A2] | -0.531 | -0.919 | -0.725 | 11465 | 19975.5 | 2954.48 | – | – | – | – | – | – | –
14 | Oc1cc(O)c2c(c1)O[C@H](c1ccc(O)c(O)c1)[C@H](O)[C@H]2c1c(O)cc(O)c2c1O[C@H](c1ccc(O)c(O)c1)[C@H](O)C2 [Procyanidin B2] | -0.678 | -0.711 | -0.695 | 11690.3 | 18204.5 | 5175.99 | – | – | – | – | – | – | –
15 | Oc1cc(O)c2c(c1)O[C@H](c1ccc(O)c(O)c1)[C@H](O)[C@H]2c1c(O)cc(O)c2c1O[C@H](c1ccc(O)c(O)c1)[C@H](O)[C@H]2c1c(O)cc(O)c2c1O[C@H](c1ccc(O)c(O)c1)[C@H](O)C2 [Procyanidin C1] | 0.76 | 1.6 | – | – | 35473.6 | 29854.9 | – | – | – | 32664.3 | – | 1.18 | –
16 | CCCOC(=O)c1cc(O)c(O)c(O)c1 [Propyl gallate] | -0.716 | -0.982 | – | – | 17751.7 | 2276.1 | – | – | – | 10013.9 | – | – | -0.849
17 | CCCOC(=O)c1ccc(O)cc1 [Propylparaben] | 0.084 | 0.893 | – | – | 27354.6 | 22304.9 | – | – | – | 24829.8 | – | – | 0.488
18 | O=Cc1ccc(O)c(O)c1 [Protocatechualdehyde] | -0.894 | -0.283 | – | 12680.1 | 15614.9 | 9745.34 | – | – | – | – | – | – | -0.588
19 | O=C(O)c1ccc(O)c(O)c1 [Protocatechuic acid] | -0.928 | -0.202 | – | 12912.5 | 15212.3 | 10612.8 | – | – | – | – | – | – | -0.565
20 | Cc1cc(O)c2c(=O)c3c(O)cc(O)c4c5c(O)cc(O)c6c(=O)c7c(O)cc(C)cc7c(c65)c(c2c1)c34 [Protohypericin] | -0.657 | -0.804 | -0.73 | 11323.3 | 18463.4 | 4183.21 | – | – | – | – | – | – | –
21 | OC[C@]1(O)COc2cc(O)ccc2-c2cc(O)c(O)cc2C1 [Protosappanin B] | -0.022 | -0.809 | -0.415 | 15106.6 | – | – | 26082.6 | 4130.62 | – | – | – | – | –
22 | COc1cc(O)c2c(=O)c(-c3ccc(O)cc3)coc2c1 [Prunetin] | 3.008 | 2.297 | – | – | 62461.3 | 37293.6 | – | – | – | 49877.5 | – | 2.652 | –
23 | O=C1C[C@@H](c2ccc(O)cc2)Oc2cc(O[C@@H]3O[C@H](CO)[C@@H](O)[C@H](O)[C@H]3O)cc(O)c21 [Prunin] | -0.134 | 0.469 | – | – | 24743.3 | 17772.6 | – | – | 0.168 | 21257.9 | – | – | –
24 | COc1cc(/C=C/c2ccc(O)cc2)cc(OC)c1 [Pterostilbene] | -0.975 | -0.298 | -0.636 | 12114.4 | 14642.4 | 9586.42 | – | – | – | – | – | – | –
25 | O=c1c(-c2ccc(O)cc2)coc2c([C@@H]3O[C@H](CO[C@@H]4OC[C@@H](O)[C@H](O)[C@H]4O)[C@@H](O)[C@H](O)[C@H]3O)c(O)ccc12 [Puerarin 6''-O-Xyloside] | -0.042 | -0.868 | -0.455 | 14673.6 | – | – | 25849 | 3498.14 | – | – | – | – | –
